Format: physicochemical
From the text: U.S. Pat. No. 5,783,203 mentions acetone as a solvent for imidacloprid. […] Using a 6 wt % imidacloprid in acetone would mean applying 1.67 wt % of the solution on the fertilizer based on the combined weight of the fertilizer and the solution to achieve a product with 0.10 wt % imidacloprid. This would be very difficult to achieve a dry product. Fertilizer products with 0.2 wt % and 0.5 wt % imidacloprid would require 3.33 wt % and 8.33 wt % respectively of the imidacloprid solution absorbed onto the fertilizer; concentrations which are not likely feasible in acetone. In addition, acetone is volatile and highly flammable which would make processing very difficult and expensive.

SMILES: O=[N+]([O-])NC1=NCCN1Cc1ccc(Cl)nc1 [imidacloprid]
- solubility: less than 7 wt %

From US20080171659A1, “Insecticidally Coated Fertilizer Solids” (priority 2007, published 2008)
